Several values for one entry are separate records, joined by “and”; a condition that tells them apart may be missing. Equal entries are not always repeated.
What was measured:
Assay type in all cases: toxicity, cell-based
HEK-293T = experiment: Incucyte cell viability with HEK293T; details: human, 10 µM, compound concentration 10 uM
Fibroblast = experiment: Incucyte cell viability with human fibroblast; details: 10 µM, compound concentration 10 uM
U2OS = experiment: Incucyte cell viability with U2OS; details: human, 10 µM, compound concentration 10 uM
Note: unitless GR value; below 1 slowed growth and below 0 cell loss.

Row | SMILES | Growth Rate (HEK-293T; 6 h, replicate number 1) | Growth Rate (HEK-293T; 18 h, replicate number 1) | Growth Rate (HEK-293T; 24 h, replicate number 1) | Growth Rate (HEK-293T; 24 h, replicate number 2) | Growth Rate (Fibroblast; 0 h, replicate number 2) | Growth Rate (Fibroblast; 12 h, replicate number 1) | Growth Rate (Fibroblast; 12 h, replicate number 2) | Growth Rate (Fibroblast; 18 h, replicate number 2) | Growth Rate (Fibroblast; 24 h, replicate number 2) | Growth Rate (U2OS; 0 h, replicate number 2) | Growth Rate (U2OS; 6 h, replicate number 2) | Growth Rate (U2OS; 18 h, replicate number 2) | Growth Rate (U2OS; 24 h, replicate number 2) | Growth Rate (HEK-293T; 0 h, replicate number 1) | Growth Rate (HEK-293T; 12 h, replicate number 1) | Growth Rate (U2OS; 18 h, replicate number 1) | Growth Rate (U2OS; 24 h, replicate number 1) | Growth Rate (Fibroblast; 0 h, replicate number 1) | Growth Rate (Fibroblast; 6 h, replicate number 1) | Growth Rate (Fibroblast; 18 h, replicate number 1) | further results
1 | Cc1cc(SCc2sc(-c3ccc(C(F)(F)F)cc3)nc2C)ccc1OCC(=O)O [GW501516] | 0.99 | 1 | 0.98 | 0.83 | 0.89 | 0.83 | 0.31 | 0.73 | 0.83 | 0.72 | 0.95 | 0.92 | 0.98 |  |  |  |  |  |  |  | Growth Rate (HEK-293T; 0 h, replicate number 2): -0.84; Growth Rate (HEK-293T; 6 h, replicate number 2): 0.71; Growth Rate (HEK-293T; 12 h, replicate number 2): 0.95; Growth Rate (HEK-293T; 18 h, replicate number 2): 0.93; Growth Rate (Fibroblast; 6 h, replicate number 2): 0.42; Growth Rate (U2OS; 12 h, replicate number 2): 0.77
2 | O=C(Nc1ccccc1C(=O)O)c1cc(S(=O)(=O)c2ccccc2)ccc1Cl | 0.7 | 0.3 | 0.24 | 0.34 | -0.73 |  |  |  |  | 0.97 |  | 0.65 | 0.8 | -0.5 | 0.52 | 0.96 | 0.79 |  |  |  | Growth Rate (HEK-293T; 0 h, replicate number 2): -0.73; Growth Rate (HEK-293T; 12 h, replicate number 2): 0.88; Growth Rate (HEK-293T; 18 h, replicate number 2): 0.41; Growth Rate (U2OS; 12 h, replicate number 2): 0.55
3 | COc1cc(-c2cc3ncccc3c(O[C@H](C)[C@H]3CNC(=O)C3)n2)cc(OC)c1OC.Cl |  |  |  | 0.86 | -0.01 | 0.89 | 0.61 and 0.94 | 0.86 |  |  |  |  | 0.94 |  |  | 0.92 | 0.78 | -1 | 0.62 | 0.88 | Growth Rate (HEK-293T; 18 h, replicate number 2): 0.97; Growth Rate (U2OS; 12 h, replicate number 1): 0.79
4 | Cc1cc2nc(N3CCC(C(=O)NC4CCCC4)CC3)n(C(C)C)c2cc1C | 0.3 | 0.97 | 0.88 |  |  | 0.26 | 0.74 | 0.7 | 0.78 | -0.6 | 0.39 | 0.67 | 0.8 |  | 0.77 |  | 0.95 | -1 | 0.17 | 0.48 | Growth Rate (Fibroblast; 24 h, replicate number 1): 0.4; Growth Rate (U2OS; 12 h, replicate number 1): 0.79; Growth Rate (U2OS; 12 h, replicate number 2): 0.47
5 | Cc1cc(-c2cnc(N)c3c(-c4ccc5scnc5c4)csc23)n(C)n1 | -0.34 | 0.02 | 0.06 |  |  | 0.42 | 0.67 | 0.9 | 0.92 | -0.85 | 0.91 |  |  |  | -0.15 | 0.91 |  | -1 | 0.88 | 0.91 | Growth Rate (Fibroblast; 6 h, replicate number 2): 0.31; Growth Rate (U2OS; 0 h, replicate number 1): -0.98; Growth Rate (U2OS; 12 h, replicate number 1): 0.94; Growth Rate (U2OS; 12 h, replicate number 2): -0.33
6 | O=C(O)[C@]1(Cc2cccc(Nc3nccs3)n2)CC[C@@H](Oc2cccc(Cl)c2F)CC1 [MK-5108] | 0.9 | 0.47 | 0.63 | 0.61 | -1 | 0.18 | 0.85 | 0.26 | 0.2 |  | 0.59 | 0.25 | 0.47 | 0.43 | 0.39 | 0.21 | 0.37 |  |  | 0.17 | Growth Rate (HEK-293T; 6 h, replicate number 2): 0.73; Growth Rate (HEK-293T; 12 h, replicate number 2): 0.16; Growth Rate (HEK-293T; 18 h, replicate number 2): 0.35; Growth Rate (Fibroblast; 24 h, replicate number 1): 0.32; Growth Rate (U2OS; 6 h, replicate number 1): 0.98; Growth Rate (U2OS; 12 h, replicate number 1): 0.56; Growth Rate (U2OS; 12 h, replicate number 2): 0.14
7 | Cc1ncc(C(=O)Nc2cc(C(C)(C)C)on2)cc1-n1cc(-c2cnn(C)c2C)nn1.Cl | 0.99 |  |  |  | 0.23 | 0.95 | 0.79 |  | 0.95 |  | 0.94 | 0.92 | 0.58 | -0.6 |  |  |  | 0.92 | 0.69 |  | Growth Rate (HEK-293T; 6 h, replicate number 2): 0.65; Growth Rate (Fibroblast; 6 h, replicate number 2): 0.14; Growth Rate (U2OS; 6 h, replicate number 1): 0.8
8 | CC(=O)Nc1c(F)cc(C(=O)N[C@H]2CC[C@H](O)CC2)cc1O[C@@H](C)c1ccccc1 [GSK046] |  | 0.95 | 0.71 | 0.83 | 0.44 | 0.75 | 0.74 | 0.93 | 1 | 0.83 | 0.86 | 0.97 | 0.84 | 0.58 |  | 0.79 | 0.83 |  | 0.63 | 0.6 | Growth Rate (HEK-293T; 6 h, replicate number 2): 0.69; Growth Rate (HEK-293T; 12 h, replicate number 2): 0.74; Growth Rate (Fibroblast; 6 h, replicate number 2): 0.19; Growth Rate (Fibroblast; 24 h, replicate number 1): 0.71; Growth Rate (U2OS; 0 h, replicate number 1): -0.56; Growth Rate (U2OS; 6 h, replicate number 1): -0.86; Growth Rate (U2OS; 12 h, replicate number 1): 0.72; Growth Rate (U2OS; 12 h, replicate number 2): 0.94
9 | COc1ccc(CC[C@@H](OC(=O)[C@H]2CCCCN2C(=O)[C@@H](c2cc(OC)c(OC)c(OC)c2)C2CCCCC2)c2cccc(OCCN3CCOCC3)c2)cc1OC |  |  | 0.74 | 0.49 |  |  |  |  |  | -1 | -0.94 | 0.99 | 0.87 |  |  | 0.98 |  | -0.89 |  |  | Growth Rate (HEK-293T; 0 h, replicate number 2): -0.05; Growth Rate (HEK-293T; 12 h, replicate number 2): 0.72; Growth Rate (HEK-293T; 18 h, replicate number 2): 0.52; Growth Rate (Fibroblast; 24 h, replicate number 1): 0.99
10 | CCCCC[C@@](C)(O)/C=C/[C@H]1C(=O)CC(O)C1C/C=C\CCCC(=O)O (stereo partly drawn) |  |  |  |  |  | 0.71 | 0.2 | 0.57 | 0.71 |  |  |  | 1 | -0.27 |  |  | 0.94 |  |  |  | Growth Rate (HEK-293T; 0 h, replicate number 2): 0.17; Growth Rate (HEK-293T; 12 h, replicate number 2): 0.96; Growth Rate (Fibroblast; 6 h, replicate number 2): -0.92; Growth Rate (U2OS; 6 h, replicate number 1): 0.49
11 | O=C(NNC(=O)c1ccc(CNS(=O)(=O)c2ccc(F)c(Cl)c2)cc1)c1ccccc1 | 0.34 | 0.31 | 0.36 | 0.83 | -1 |  |  | 0.85 |  | 0.85 |  |  |  |  | 0.48 | 0.97 |  | -0.42 |  | 0.64 | Growth Rate (HEK-293T; 6 h, replicate number 2): 0.59; Growth Rate (HEK-293T; 12 h, replicate number 2): 0.64; Growth Rate (HEK-293T; 18 h, replicate number 2): 0.87; Growth Rate (Fibroblast; 6 h, replicate number 2): -0.76; Growth Rate (U2OS; 0 h, replicate number 1): 0.67
12 | O=C(O)CCn1c2c(c3ccccc31)C[C@H](NS(=O)(=O)c1ccc(F)cc1)CC2 [RAMATROBAN] |  |  |  |  |  |  | 0.99 | 0.89 | 0.74 |  |  |  |  | 0.1 |  |  |  |  |  |  | Growth Rate (HEK-293T; 0 h, replicate number 2): 0.04; Growth Rate (U2OS; 0 h, replicate number 1): 0.53; Growth Rate (U2OS; 6 h, replicate number 1): 0.88
13 | COc1ccccc1[C@@H]1CNCCC12CCN(C(=O)[C@](OC)(c1ccccc1)C(F)(F)F)CC2 |  | 0.28 | 0.22 | 0.34 |  | 0.93 | 0.7 | 0.97 | 0.68 | 0.59 |  | 0.99 | 0.82 |  | 0.43 | 0.73 | 0.53 | -1 | 0.9 | 0.54 | Growth Rate (HEK-293T; 18 h, replicate number 2): 0.64; Growth Rate (Fibroblast; 24 h, replicate number 1): 0.63; Growth Rate (U2OS; 0 h, replicate number 1): -0.8; Growth Rate (U2OS; 6 h, replicate number 1): 0.37; Growth Rate (U2OS; 12 h, replicate number 1): 0.85
14 | CC[C@](C)(O)C#Cc1cc2c(ccn2-c2cc(OC)nc(N)n2)cn1 | -0.14 | 0.76 | 0.84 |  |  | -1 |  |  | 0.83 | -0.28 |  |  |  |  | 0.4 |  |  | -0.3 | -0.12 | 0.63 | Growth Rate (HEK-293T; 0 h, replicate number 2): 0.37; Growth Rate (HEK-293T; 6 h, replicate number 2): 0.55
15 | NC(=O)c1sc2nc(N3CCC(NC[C@H](O)c4ccccn4)CC3)cc(C(F)(F)F)c2c1N |  |  |  |  | 0.11 | 0.88 |  |  |  | 0.65 | -0.12 | 0.69 | -0.15 | -0.64 |  |  |  | 0.86 |  |  | Growth Rate (U2OS; 0 h, replicate number 1): 0.49; Growth Rate (U2OS; 12 h, replicate number 1): 0.93; Growth Rate (U2OS; 12 h, replicate number 2): 0.54
16 | CC(C)(C)OC(=O)CN1C(=O)c2c(OCC(=O)O)cccc2Oc2ccc(C(F)(F)F)cc21 | 0.69 | 0.76 | 0.75 |  |  |  | 0.43 | 0.87 |  |  |  |  |  | 0.31 | 0.61 | 0.83 | 0.89 |  | 0.95 |  | Growth Rate (HEK-293T; 0 h, replicate number 2): -0.65; Growth Rate (Fibroblast; 6 h, replicate number 2): -0.59; Growth Rate (U2OS; 0 h, replicate number 1): 0.59; Growth Rate (U2OS; 6 h, replicate number 1): 0.75; Growth Rate (U2OS; 12 h, replicate number 1): 0.85

— ChEMBL document CHEMBL5303304, “EUbOPEN Chemogenomics Library - IncuCyte” (2023)
